Data published in patent US20090246292A1, “ANTIMICROBIAL FORMULATIONS COMPRISING A QUINONE AND A COPPER SALT” (priority 2006, published 2009).

Key:
P. acnes NCTC 737 [1] = experiment: Disc diffusion assay (DDA), also supplemented; settings: for DDA + lipid / DDA + salt & lipid / DDA + salt: copper salt alone, 200 μg per disc (silicate 62 μg); for DDA + lipid: 1% (v/v) Tween 80; for DDA + salt & lipid: salt and 1% (v/v) Tween 80; for DDA + salt: sodium chloride (100 mM);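 on all read-outs here: paper disc carrying compound placed on inoculated Wilkins-Chalgren Anaerobe agar pH 6.0, with lipid or NaCl supplement where listed, anaerobic 37 °C for 72 h, inhibition zone diameter read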
Experimental: (§6) The propionibacteria were cultured and maintained on Wilkins-Chalgren Anaerobe Medium (agar and broth) at pH 6.0; all cultures were incubated anaerobically at 37° C. for 72 hours.
(d) Disc Diffusion Assay (DDA)
A sterile paper disc was impregnated with a sample of the test compound in a suitable solvent and 30 minutes allowed for the solvents to evaporate (where possible). The disc was then placed on an agar plate onto which the test micro-organism had been inoculated. The plate was then incubated under the conditions described above, following which it was examined visually for signs of bacterial growth. […] The diameter of this zone of “inhibition” was measured using a ProtoCOL™ automated zone sizer (Synbiosis, Cambridge, UK).
(f) Supplemented Disc Diffusion Assays
(§7) For assays using Propionibacterium spp. strains the supplements used in the examples below were lipid (either Tween™ 80 or triolein, both at 1% v/v) and sodium chloride (100 mM).

P. acnes NCTC 737 [2] = experiment: Synergy disc diffusion assay (SDDA), also supplemented; settings: for SL SDDA with TBHQ / SDDA with TBHQ: copper salt + TBHQ on one disc, 200 μg of each (silicate 62 μg); for SL SDDA with TBHQ / SL SDDA area increase / SL SDDA increase: salt and lipid (1% (v/v) Tween 80); for SDDA with TBHQ / SDDA increase / SDDA area increase: unsupplemented; for SDDA increase: copper salt + TBHQ vs larger zone of either compound alone; for SL SDDA area increase / SL SDDA increase / SDDA area increase: copper salt + TBHQ
Experimental: as §6
(e) Synergy Disc Diffusion Assay (SDDA)
(§8) This is a variation on the DDA method, in which two compounds are tested together for their combined antimicrobial activity.
(§9) Two test compounds A and B were placed on a single paper disc and the above described DDA procedure repeated.
(f) Supplemented Disc Diffusion Assays
as §7

S. aureus ATCC 29213 [3] = experiment: Minimum inhibitory concentration (MIC) assay; assay type: cell-based, Staphylococcus aureus; settings: copper salt alone; S. aureus ATCC 29213
From the text: (§1) (a) Minimum Inhibitory Concentration (MIC) Assay
(§2) The culture media were as described above.
(§3) The assays included both negative (culture medium with no micro-organisms) and positive (culture medium plus diluting solvent plus micro-organism) controls.

P. acnes NCTC 737 [4] = experiment: Minimum inhibitory concentration (MIC) assay; assay type: cell-based, Propionibacterium acnes; settings: copper salt alone; P. acnes NCTC 737
From the text: as §1, §2, §3

S. aureus ATCC 29213 [5] = experiment: Synergy disc diffusion assay (SDDA), also supplemented; settings: for SS SDDA with TBHQ / SDDA with TBHQ: copper salt + TBHQ on one disc, 200 μg of each (silicate 62 μg); for SS SDDA with TBHQ / SS SDDA area increase / SS SDDA increase: salt and serum supplements; for SDDA with TBHQ / SDDA increase / SDDA area increase: unsupplemented; for SDDA increase: copper salt + TBHQ vs larger zone of either compound alone; for SS SDDA area increase / SS SDDA increase / SDDA area increase: copper salt + TBHQ;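 on all read-outs here: disc diffusion on Mueller-Hinton agar at pH 7.2, aerobic incubation at 37 °C lasting 19-20 h, two compounds assessed jointly for combined antimicrobial effect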
Experimental: (e) Synergy Disc Diffusion Assay (SDDA)
as §8, §9
(f) Supplemented Disc Diffusion Assays
For assays using S. aureus ATCC 29213 the supplements used were sodium chloride (100 mM), lipid (Tween™ 80 at 1% v/v) and horse serum (5% v/v).

S. aureus ATCC 29213 [6] = experiment: Disc diffusion assay (DDA), also supplemented; settings: for DDA + lipid / DDA + salt & serum / DDA + salt: copper salt alone, 200 μg per disc (silicate 62 μg); for DDA + lipid: Tween 80 at 1% v/v; for DDA + salt & serum: salt and horse serum (5% v/v); for DDA + salt: sodium chloride (100 mM)
S. aureus ATCC 29213 [7] = experiment: Minimum bactericidal concentration (MBC) assay; assay type: cell-based, Staphylococcus aureus; settings: copper salt alone; S. aureus ATCC 29213
Experimental: (§4) (b) Minimum Bactericidal Concentration (MBC) Assay
(§5) Following incubation they were examined visually for bacterial growth.

P. acnes NCTC 737 [8] = experiment: Minimum bactericidal concentration (MBC) assay; assay type: cell-based, Propionibacterium acnes; settings: copper salt alone; P. acnes NCTC 737
Experimental: as §4, §5

With `CC(=O)Oc1ccccc1C(=O)[O-].CC(=O)Oc1ccccc1C(=O)[O-].CC(=O)Oc1ccccc1C(=O)[O-].CC(=O)Oc1ccccc1C(=O)[O-].[Cu+2].[Cu+2]` [Copper (II) aspirinate] the DDA (P. acnes NCTC 737 [1]) was 44.32 mm, the “DDA + lipid” value (P. acnes NCTC 737 [1]) was 36.19 mm and the “DDA + salt & lipid” value (P. acnes NCTC 737 [1]) was 47.45 mm. For the same compound, the “DDA + salt” value (P. acnes NCTC 737 [1]) was 40.21 mm, the “SL SDDA with TBHQ” value (P. acnes NCTC 737 [2]) was 58.93 mm and the “SDDA with TBHQ” value (P. acnes NCTC 737 [2]) was 60.80 mm. The SDDA increase (P. acnes NCTC 737 [2]) was 16.48 mm, the “SL SDDA area increase” value (P. acnes NCTC 737 [2]) was 54.20% and the “SL SDDA increase” value (P. acnes NCTC 737 [2]) was 11.47 mm. The SDDA area increase (P. acnes NCTC 737 [2]) was 88.19%, the MIC (S. aureus ATCC 29213 [3]) was 125 µg/mL and the MIC/MBC ratio (S. aureus ATCC 29213 [3]) was less than 0.5. For the same compound, the MIC (P. acnes NCTC 737 [4]) was 15.6 µg/mL, the “SS SDDA with TBHQ” value (S. aureus ATCC 29213 [5]) was 56.95 mm and the “SDDA with TBHQ” value (S. aureus ATCC 29213 [5]) was 69.05 mm. The SDDA increase (S. aureus ATCC 29213 [5]) was 28.63 mm, the “SS SDDA area increase” value (S. aureus ATCC 29213 [5]) was 69.99% and the “SS SDDA increase” value (S. aureus ATCC 29213 [5]) was 13.27 mm. For the same compound, the SDDA area increase (S. aureus ATCC 29213 [5]) was 191.83%, the DDA (S. aureus ATCC 29213 [6]) was 0 mm and the “DDA + lipid” value (S. aureus ATCC 29213 [6]) was 0 mm. The “DDA + salt & serum” value (S. aureus ATCC 29213 [6]) was 0 mm, the “DDA + salt” value (S. aureus ATCC 29213 [6]) was 0 mm and the MBC (S. aureus ATCC 29213 [7]) was greater than 250 µg/mL. For the same compound, the MBC (P. acnes NCTC 737 [8]) was 62.5 µg/mL.
In the case of `[Br][Cu][Br]` [Copper (II) bromide], the “DDA + lipid” value (P. acnes NCTC 737 [1]) is reported as 42.37 mm, the “DDA + salt & lipid” value (P. acnes NCTC 737 [1]) is reported as 49.23 mm and the “DDA + salt” value (P. acnes NCTC 737 [1]) is reported as 47.94 mm. For the same compound, the “SL SDDA with TBHQ” value (P. acnes NCTC 737 [2]) was 65.39 mm, the “SDDA with TBHQ” value (P. acnes NCTC 737 [2]) was 66.3 mm and the SDDA increase (P. acnes NCTC 737 [2]) was 11.47 mm. The “SL SDDA area increase” value (P. acnes NCTC 737 [2]) was 76.46%, the “SL SDDA increase” value (P. acnes NCTC 737 [2]) was 16.17 mm and the SDDA area increase (P. acnes NCTC 737 [2]) was 46.18%. For the same compound, the MIC (S. aureus ATCC 29213 [3]) was greater than 250 µg/mL, the MIC (P. acnes NCTC 737 [4]) was 7.8 µg/mL and the MIC/MBC ratio (P. acnes NCTC 737 [4]) was 0.125. For the same compound, the “SS SDDA with TBHQ” value (S. aureus ATCC 29213 [5]) was 44.42 mm, the “SDDA with TBHQ” value (S. aureus ATCC 29213 [5]) was 59.26 mm and the SDDA increase (S. aureus ATCC 29213 [5]) was 18.84 mm. The “SS SDDA area increase” value (S. aureus ATCC 29213 [5]) was 3.42%, the “SS SDDA increase” value (S. aureus ATCC 29213 [5]) was 0.74 mm and the SDDA area increase (S. aureus ATCC 29213 [5]) was 114.95%. The “DDA + lipid” value (S. aureus ATCC 29213 [6]) was 0 mm, the “DDA + salt & serum” value (S. aureus ATCC 29213 [6]) was 0 mm and the “DDA + salt” value (S. aureus ATCC 29213 [6]) was 0 mm. The MBC (S. aureus ATCC 29213 [7]) was greater than 250 µg/mL and the MBC (P. acnes NCTC 737 [8]) was 62.5 µg/mL.
For `[Cl-].[Cu+2].[Cu+2].[OH-].[OH-].[OH-]` [Copper (II) oxychloride], the DDA (P. acnes NCTC 737 [1]) was 51.21 mm, the “DDA + lipid” value (P. acnes NCTC 737 [1]) was 51.65 mm and the “DDA + salt & lipid” value (P. acnes NCTC 737 [1]) was 52.04 mm. The “DDA + salt” value (P. acnes NCTC 737 [1]) was 54.47 mm, the “SL SDDA with TBHQ” value (P. acnes NCTC 737 [2]) was 54.02 mm and the “SDDA with TBHQ” value (P. acnes NCTC 737 [2]) was 59.45 mm. For the same compound, the SDDA increase (P. acnes NCTC 737 [2]) was 8.24 mm, the “SL SDDA area increase” value (P. acnes NCTC 737 [2]) was 7.76% and the “SL SDDA increase” value (P. acnes NCTC 737 [2]) was 1.98 mm. It also gave an SDDA area increase (P. acnes NCTC 737 [2]) of 34.77%, an MIC (S. aureus ATCC 29213 [3]) greater than 250 µg/mL and an MIC (P. acnes NCTC 737 [4]) of 0.98 µg/mL. The MIC/MBC ratio (P. acnes NCTC 737 [4]) was 0.06, the “SS SDDA with TBHQ” value (S. aureus ATCC 29213 [5]) was 43.89 mm and the “SDDA with TBHQ” value (S. aureus ATCC 29213 [5]) was 52.63 mm. The SDDA increase (S. aureus ATCC 29213 [5]) was 12.21 mm, the “SS SDDA area increase” value (S. aureus ATCC 29213 [5]) was 0.96% and the “SS SDDA increase” value (S. aureus ATCC 29213 [5]) was 0.21 mm. The SDDA area increase (S. aureus ATCC 29213 [5]) was 69.54%, the DDA (S. aureus ATCC 29213 [6]) was 0 mm and the “DDA + lipid” value (S. aureus ATCC 29213 [6]) was 0 mm. The “DDA + salt & serum” value (S. aureus ATCC 29213 [6]) was 0 mm, the “DDA + salt” value (S. aureus ATCC 29213 [6]) was 0 mm and the MBC (S. aureus ATCC 29213 [7]) was greater than 250 µg/mL. The MBC (P. acnes NCTC 737 [8]) was 15.6 µg/mL.
